Assay results taken from patent US4943566A, “Novel 17-aryl-steroids” (Roussel Uclafi, priority 1987, dated 1990).

Key:
[1] = target: T1, progesterone receptors of rabbit uterus (Oryctolagus cuniculus, UniProt P06186); experiment: Relative binding affinity (ARL), progesterone receptors of rabbit uterus; settings: rabbit uterus cytosol, tritiated 17,21-dimethyl-19-nor-Δ4,9-pregnadiene-3,20-dione, cold reference hormone progesterone; for relative affinity of the bond (ARL), Progestogen, 2H: incubation 2H at 0° C.; for relative affinity of the bond (ARL), Progestogen, 24H: incubation 24H at 0° C.
T1 construct: The first test was on the progesterone receptors of rabbit uterus; from tissue; host or cells: uterus of estradiol-treated immature rabbits, 105,000 g supernatant (cytosol)
T1 sequence (P06186 1-930): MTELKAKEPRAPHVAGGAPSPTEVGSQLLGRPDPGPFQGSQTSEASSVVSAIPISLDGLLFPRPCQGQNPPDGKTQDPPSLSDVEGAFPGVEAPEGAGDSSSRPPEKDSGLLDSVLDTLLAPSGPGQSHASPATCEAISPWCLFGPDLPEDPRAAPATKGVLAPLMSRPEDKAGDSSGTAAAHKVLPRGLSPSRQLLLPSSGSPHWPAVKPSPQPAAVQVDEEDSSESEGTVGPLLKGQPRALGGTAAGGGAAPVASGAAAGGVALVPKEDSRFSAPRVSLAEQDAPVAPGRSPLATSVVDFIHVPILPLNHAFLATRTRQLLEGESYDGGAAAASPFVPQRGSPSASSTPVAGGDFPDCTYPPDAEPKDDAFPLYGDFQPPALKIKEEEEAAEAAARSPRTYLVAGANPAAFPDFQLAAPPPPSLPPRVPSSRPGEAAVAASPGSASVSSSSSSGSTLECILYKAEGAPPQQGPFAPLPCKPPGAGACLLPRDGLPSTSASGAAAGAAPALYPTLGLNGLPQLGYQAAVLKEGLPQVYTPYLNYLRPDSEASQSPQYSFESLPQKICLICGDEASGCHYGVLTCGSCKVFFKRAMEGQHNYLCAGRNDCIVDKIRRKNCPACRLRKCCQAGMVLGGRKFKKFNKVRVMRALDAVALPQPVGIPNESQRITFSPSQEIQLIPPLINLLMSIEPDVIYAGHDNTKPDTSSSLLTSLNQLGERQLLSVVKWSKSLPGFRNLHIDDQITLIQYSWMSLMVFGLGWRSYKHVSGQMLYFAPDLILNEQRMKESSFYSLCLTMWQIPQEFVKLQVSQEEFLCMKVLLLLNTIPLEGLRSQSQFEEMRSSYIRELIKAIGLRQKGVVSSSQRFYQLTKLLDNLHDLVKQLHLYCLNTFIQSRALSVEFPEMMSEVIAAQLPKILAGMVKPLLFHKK
Method: The first test was on the progesterone receptors of rabbit uterus in which immature rabbits weighing about 1 kg received a cutaneous application of […] of estradiol and 5 days after treatment, the animals were sacrificed. The […] was removed, weighed and homogenized at 0° C. with a Potter Teflon-glass ina buffered solution. TS (Tris 10 mM, 0.25M Saccharose, HCl, pH 7.4) (1 g of tissue per 50 ml of TS). The homogenate was ultracentrifuged at 105,000 g×90 minutes at 0° C. The surnageant samples were incubated at a time at (t) 0° C. with a constant concentration (T) of tritiated product (R) which is 17,21-dimethyl-19-nor-Δ^4,9 -pregnadiene-3,20-dione in the presence of increasing concentrations from 0 to 2500×10^-9 M or cold R or cold progestenone or cold test compound. The concentration of bound tritiated R was measured for each incubate by absorption technique on dextran carbon.
(§1) The relative affinity of the bond (ARL) was calculated in the same for the receptors. One traced the following 2 curves: the percentage of bond tritiated hormone B/T as a logarithmic function of the concentration of the cold reference hormone and B/T as a logarithmic function of the concentration of the cold test compound. Using the equation [formula] B/T max.=% of bound tritiated hormone for one incubation of tritiated hormone at concentration (T)
(§2) B/T min.=% of bound tritiated hormone for one incubation of tritiated hormone at a concentration T in the presence of a great excess of cold hormone (2500×10^-9 M).
(§3) The intersections of I50 lines and the curves permit an evaluation of the hormone concentration of the cold reference (CH) and the cold test compound (CX) which inhibited by 50% the bounding of tritiated hormone to the receptor. The ARL of the test compound was determined by the equation. [formula] and the following results were obtained.

[2] = target: T2, glucocorticoid receptor, rat thymus (Rattus norvegicus, UniProt P06536); experiment: Relative binding affinity (ARL), glucocorticoid receptor of rat thymus; settings: rat thymus cytosol, tritiated dexamethasone, cold reference dexamethasone; for relative affinity of the bond (ARL), Glucocorticoid, 2H: incubation 2H at 0° C.; for relative affinity of the bond (ARL), Glucocorticoid, 24H: incubation 24H at 0° C.
T2 construct: The second test was a glucocrticoid receptor test on rat thymus; from tissue; host or cells: thymus of adrenalectomized male Sprague Dawley EOPS rats, 105,000 g supernatant (cytosol)
T2 sequence (P06536 1-795): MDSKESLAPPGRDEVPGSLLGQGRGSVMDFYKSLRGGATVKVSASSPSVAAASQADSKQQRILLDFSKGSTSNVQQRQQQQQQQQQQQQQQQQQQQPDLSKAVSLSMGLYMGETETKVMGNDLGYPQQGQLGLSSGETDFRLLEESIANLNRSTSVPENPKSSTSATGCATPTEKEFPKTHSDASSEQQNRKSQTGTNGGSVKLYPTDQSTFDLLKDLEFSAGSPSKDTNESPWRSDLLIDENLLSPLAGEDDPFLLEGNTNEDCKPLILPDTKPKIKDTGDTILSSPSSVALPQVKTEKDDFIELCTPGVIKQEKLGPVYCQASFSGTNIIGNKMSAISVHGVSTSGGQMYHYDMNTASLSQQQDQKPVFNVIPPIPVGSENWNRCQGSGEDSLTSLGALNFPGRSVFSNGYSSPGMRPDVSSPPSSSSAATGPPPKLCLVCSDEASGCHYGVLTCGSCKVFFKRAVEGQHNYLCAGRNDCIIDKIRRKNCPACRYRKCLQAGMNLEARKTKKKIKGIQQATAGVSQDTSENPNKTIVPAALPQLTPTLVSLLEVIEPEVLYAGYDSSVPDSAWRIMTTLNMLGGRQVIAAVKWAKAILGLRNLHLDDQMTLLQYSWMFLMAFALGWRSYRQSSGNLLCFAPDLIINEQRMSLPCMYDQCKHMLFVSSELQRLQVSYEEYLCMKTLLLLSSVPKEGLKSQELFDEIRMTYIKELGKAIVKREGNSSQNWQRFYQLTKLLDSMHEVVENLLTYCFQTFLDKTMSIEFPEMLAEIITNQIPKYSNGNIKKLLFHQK
Method: The second test was a glucocrticoid receptor test on rat thymus in which male rats of the Sprague Dawley EOPS strain weighing 160 to 200 g were surrenalectomized. 4 to 8 days after this ablation, the animals were killed and the thymus was removed and homogenized at 0° C. in a buffered TS solution. (Tris 10 mM, 0.25M saccharose, 2 mM dithiothreitol, HCl pH 7.4) with a Potter tetrafluoroethylene-glass (1 g of tissue per 10 ml/TS). The homogenate was ultracentrifuged at 105,000 for 90 minutes at 0° C. and the surnageant samples were incubated at 0° C. for a time t with a constant concentration T of tritiated dexamethasone in the presence of increasing concentrations (0-2500×10^-9 M) or cold dexamethasone or cold test compound. The concentration B of bound tritiated dexamethasone was measured for each incubate by carbon-dextran absorption technique.
as §1, §2, §3

relative affinity of the bond (ARL), Progestogen, 2H [1]	relative affinity of the bond (ARL), Progestogen, 24H [1]	relative affinity of the bond (ARL), Glucocorticoid, 2H [2]	relative affinity of the bond (ARL), Glucocorticoid, 24H [2]	Compound
34	122	153	145	CN(C)c1ccc([C@H]2C[C@@]3(C)[C@@H](CC[C@@]3(O)c3cccc(O)c3)[C@@H]3CCC4=CC(=O)CCC4=C32)cc1 [Example 13 (Product A), 11β-(4-dimethylamino-phenyl)-17α-(3-hydroxy-phenyl)-Δ^4,9-estradiene-17β-ol-3-one]
38	230	56	45	COc1ccccc1[C@]1(O)CC[C@H]2[C@@H]3CCC4=CC(=O)CCC4=C3[C@@H](c3ccc(N(C)C)cc3)C[C@@]21C [Example 11 (Product A), 11β-(4-dimethylamino-phenyl)-17α-(2-methoxy-phenyl)-Δ^4,9-estradiene-17β-ol-3-one]
12	49	47	40	COc1ccccc1[C@@]1(O)CC[C@H]2[C@@H]3CCC4=CC(=O)CCC4=C3[C@@H](c3ccc(N(C)C)cc3)C[C@@]21C [Example 11 (Product B), 11β-(4-dimethylamino-phenyl)-17β-(2-methoxy-phenyl)-Δ^4,9-estradiene-17α-ol-3-one]
22	110	39	40	Cc1ccc([C@]2(O)CC[C@H]3[C@@H]4CCC5=CC(=O)CCC5=C4[C@@H](c4ccc(N(C)C)cc4)C[C@@]32C)cc1 [Example 9, 11β-(4-dimethylamino-phenyl)-17α-(4-methyl-phenyl)-Δ^4,9-estradiene-17β-ol-3-one]
33	35	133	97	CN(C)c1ccc([C@H]2C[C@@]3(C)[C@@H](CC[C@@]3(O)c3ccc(O)cc3)[C@@H]3CCC4=CC(=O)CCC4=C32)cc1 [Example 6, 11β-(4-dimethylamino-phenyl)-17α-(4-hydroxy-phenyl)-Δ^4,9-estradiene-17β-ol-3-one]
24	131	90	76	COc1cccc([C@]2(O)CC[C@H]3[C@@H]4CCC5=CC(=O)CCC5=C4[C@@H](c4ccc(N(C)C)cc4)C[C@@]32C)c1 [Example 12 (Product A), 11β-(4-dimethylamino-phenyl)-17α-(3-methoxy-phenyl)-Δ^4,9-estradiene-17β-ol-3-one]
32	150	71	57	CSc1ccc([C@H]2C[C@@]3(C)[C@@H](CC[C@@]3(O)c3ccc(N(C)C)cc3)[C@@H]3CCC4=CC(=O)CCC4=C32)cc1 [Example 7, 11β-(4-methylthio-phenyl)-17α-(4-dimethylamino-phenyl)-Δ^4,9-estraidene-17β-ol-3-one]
47	189	106	112	CN(C)c1ccc([C@H]2C[C@@]3(C)[C@@H](CC[C@@]3(O)c3ccccc3O)[C@@H]3CCC4=CC(=O)CCC4=C32)cc1 [Example 10, 11β-(4-dimethylamino-phenyl)-17α-(2-hydroxy-phenyl)-Δ^4,9-estradiene-17β-ol-3-one]
1,9	1,7	76	63	CN(C)c1ccc([C@H]2C[C@@]3(C)[C@@H](CC[C@]3(O)c3cccc(O)c3)[C@@H]3CCC4=CC(=O)CCC4=C32)cc1 [Example 13 (Product B), 11β-(4-dimethylaminophenyl)-17β-(3-hydroxy-phenyl)-Δ^4,9-estradiene-17α-ol-3-one]
48	259	94	68	COc1ccc([C@H]2C[C@@]3(C)[C@@H](CC[C@@]3(O)c3ccc(OC)cc3)[C@@H]3CCC4=CC(=O)CCC4=C32)cc1 [Example 1, 11β,17α-bis-(4-methoxy-phenyl)-Δ^4,9-estradiene-17β-ol-3-one]

Compound	relative affinity of the bond (ARL), Progestogen, 2H [1]	relative affinity of the bond (ARL), Progestogen, 24H [1]	relative affinity of the bond (ARL), Glucocorticoid, 2H [2]	relative affinity of the bond (ARL), Glucocorticoid, 24H [2]
CN(C)c1ccc([C@H]2C[C@@]3(C)[C@@H](CC[C@@]3(O)c3ccccc3)[C@@H]3CCc4cc(O)ccc4[C@H]32)cc1 [Example 14, 11β-(4-dimethylamino-phenyl)-17α-phenyl-Δ^1,3,5(10) -estratriene-3,17β-diol]	5	67	98	129
